Data taken from patent US20240294541A1, “COMPOUNDS CONSTITUTING C20-MODIFIED SALINOMYCIN DERIVATIVES, A METHOD FOR OBTAINING THE SAME, A COMPOSITION CONTAINING THE SAME AND A USE OF SAID COMPOUNDS” (FILECLO SPOLKA Z OGRANICZONA ODPOWIEDZIALNOSCIA, priority 2021, published 2024).
Like-named read-outs stand apart in the source and are kept apart here.

Key:
Type in all cases: cell-based
[1] = system: PLC/PRF/5 (human liver cancer); test: cells; details: for IC50: Homo sapiens, PLC-PRF-5, 72 h with compound, SRB, n/a = non-active compound, read-out: PLC/PRF/5 IC50; for PLC/PRF/5 SI: selectivity coefficient vs normal BALB/3T3 cells
[2] = system: BALB/3T3 (normal mouse fibroblasts); test: In vitro cytotoxicity, SRB assay, normal BALB/3T3 fibroblasts; details: Mus musculus, BALB/3T3; normal cells; 72 h with compound, SRB; n/a = non-active compound; read-out: BALB/3T3 IC50
[3] = system: MIA PaCa-2 (human pancreatic cancer); test: cells; details: for IC50: Homo sapiens, MIA PaCa-2, 72 h with compound, SRB, n/a = non-active compound, read-out: MIA PaCa-2 IC50; for MIA PaCa-2 SI: selectivity coefficient vs normal BALB/3T3 cells
[4] = system: A2780 (human ovarian cancer); test: In vitro cytotoxicity, SRB assay, A2780; details: for IC50: Homo sapiens; for A2780 SI: selectivity coefficient vs normal BALB/3T3 cells
[5] = system: PFSK-1 (malignant primitive neuroectodermal tumour); test: In vitro cytotoxicity, SRB assay, PFSK-1; details: for IC50: Homo sapiens; for PFSK-1 SI: selectivity coefficient vs normal BALB/3T3 cells
A375 (human melanoma) = test: In vitro cytotoxicity, SRB assay, A375; details: for IC50: Homo sapiens; for A375 SI: selectivity coefficient vs normal BALB/3T3 cells
Hs294T (human melanoma) = test: cells; details: for IC50: Homo sapiens, Hs 294T, 72 h with compound, SRB, n/a = non-active compound, read-out: Hs294T IC50; for Hs294T SI: selectivity coefficient vs normal BALB/3T3 cells
[6] = system: SNU-16 (human gastric cancer); test: cells; details: for IC50: Homo sapiens, SNU-16, 72 h with compound, MTT, n/a = non-active compound, read-out: SNU-16 IC50; for SNU-16 SI: selectivity coefficient vs normal BALB/3T3 cells
[7] = system: KG-1 (human acute myeloid leukaemia); test: In vitro cytotoxicity, MTT assay, KG-1; details: for IC50: Homo sapiens, 72 h with compound, MTT, n/a = non-active compound; for KG-1 SI: selectivity coefficient vs normal BALB/3T3 cells
[8] = system: A2780Cis (cisplatin-resistant human ovarian cancer); test: In vitro cytotoxicity, SRB assay, A2780Cis; details: for IC50: Homo sapiens, A2780cis, 72 h, read-out: A2780Cis IC50 (nM)
[9] = system: NCI-H23 (human lung cancer); test: In vitro cytotoxicity, SRB assay, NCI-H23; details: for IC50: Homo sapiens; for NCI-H23 SI: selectivity coefficient vs normal BALB/3T3 cells
[10] = A2780, 72 h with compound, SRB, n/a = non-active compound, read-out: A2780 IC50
[11] = PFSK-1, 72 h with compound, SRB, n/a = non-active compound, read-out: PFSK-1 IC50
[12] = A-375, 72 h with compound, SRB, n/a = non-active compound, read-out: A375 IC50
[13] = NCI-H23, 72 h with compound, SRB, n/a = non-active compound, read-out: NCI-H23 IC50

| SMILES | IC50 [1] | PLC/PRF/5 SI [1] | IC50 [2] | IC50 [3] | MIA PaCa-2 SI [3] | IC50 [4, 10] | A2780 SI [4] | IC50 [5, 11] | PFSK-1 SI [5] | A375 SI (A375 (human melanoma)) | IC50 (Hs294T (human melanoma)) | Hs294T SI (Hs294T (human melanoma)) | IC50 [6] | SNU-16 SI [6] | IC50 [7] | KG-1 SI [7] | A2780Cis RI [8] | A2780Cis SI [8] | IC50 [8] | NCI-H23 SI [9] | other results |
| --- | --- | --- | --- | --- | --- | --- | --- | --- | --- | --- | --- | --- | --- | --- | --- | --- | --- | --- | --- | --- | --- |
| CC[C@@H](C(=O)[C@@H](C)[C@@H](O)[C@H](C)[C@@H]1O[C@@H]([C@@H](CC)C(=O)O)CC[C@@H]1C)[C@H]1O[C@]2(C=C[C@@H](NC(=O)Nc3ccc(F)cc3F)[C@]3(CC[C@@](C)([C@H]4CC[C@](O)(CC)[C@H](C)O4)O3)O2)[C@H](C)C[C@@H]1C [FLC-00359-1] | 38.6 nM | 1.9 | 73 nM | 37.7 nM | 1.9 | 1.62 nM | 45.1 | 19.4 nM | 3.8 | 0.3 | 212 nM | 0.3 | 9.57 nM | 7.6 | 13.1 nM | 5.6 | 0.7 | 65.3 | 1.12 nM | 0.5 | IC50 (A375 (human melanoma); [12]): 228 nM; IC50 [9, 13]: 148 nM |
| CC[C@@H](C(=O)[C@@H](C)[C@@H](O)[C@H](C)[C@@H]1O[C@@H]([C@@H](CC)C(=O)O)CC[C@@H]1C)[C@H]1O[C@]2(C=C[C@@H](NC(=O)Nc3cc(C(F)(F)F)cc(C(F)(F)F)c3)[C@]3(CC[C@@](C)([C@H]4CC[C@](O)(CC)[C@H](C)O4)O3)O2)[C@H](C)C[C@@H]1C [FLC-00344-1 Na] | 1290 nM | 0.8 | 1060 nM | 383 nM | 2.8 | 21 nM | 50.5 | 112 nM | 9.5 | 0.5 | 2570 nM | 0.4 | 106 nM | 10.0 | 286 nM | 3.7 | 1.2 | 43.8 | 24.3 nM | 3.7 | IC50 (A375 (human melanoma); [12]): 2310 nM; IC50 [9, 13]: 285 nM |
| CCNC(=O)N[C@@H]1C=C[C@]2(O[C@H]([C@@H](CC)C(=O)[C@@H](C)[C@@H](O)[C@H](C)[C@@H]3O[C@@H]([C@@H](CC)C(=O)O)CC[C@@H]3C)[C@@H](C)C[C@H]2C)O[C@@]12CC[C@@](C)([C@H]1CC[C@](O)(CC)[C@H](C)O1)O2 [FLC-00358-1] | 52.8 nM | 4.2 | 223 nM | 45.6 nM | 4.9 | 3.32 nM | 67.0 | 32.3 nM | 6.9 | 1.1 | 1640 nM | 0.1 | 67.9 nM | 3.3 | 67.7 nM | 3.3 | 0.7 | 98.1 | 2.27 nM | 2.0 | IC50 (A375 (human melanoma); [12]): 208 nM; IC50 [9, 13]: 113 nM |
| CC[C@@H](C(=O)[C@@H](C)[C@@H](O)[C@H](C)[C@@H]1O[C@@H]([C@@H](CC)C(=O)O)CC[C@@H]1C)[C@H]1O[C@]2(C=C[C@@H](NC(=S)Nc3cc(Cl)cc(Cl)c3)[C@]3(CC[C@@](C)([C@H]4CC[C@](O)(CC)[C@H](C)O4)O3)O2)[C@H](C)C[C@@H]1C [FLC-00380-1] | 19.9 nM | 9.6 | 191 nM | 48.2 nM | 4.0 |  | 85.7 |  | 31.6 | 1.0 | 178 nM | 1.1 | 6.6 nM | 28.9 | 6.44 nM | 29.6 | 0.2 | 483.3 | 0.4 nM | 36.6 | IC50 ([4]; A2780, 72 h, read-out: A2780 IC50 (nM)): 2.23 nM; IC50 ([5]; PFSK-1, 72 h, read-out: PFSK-1 IC50 (nM)): 6.05 nM; IC50 (A375 (human melanoma); A-375, 72 h, read-out: A375 IC50 (nM)): 195 nM; IC50 ([9]; NCI-H23, 72 h, read-out: NCI-H23 IC50 (nM)): 5.22 nM |
| CC[C@@H](C(=O)[C@@H](C)[C@@H](O)[C@H](C)[C@@H]1O[C@@H]([C@@H](CC)C(=O)O)CC[C@@H]1C)[C@H]1O[C@]2(C=C[C@@H](NC(=O)NCCc3ccccc3)[C@]3(CC[C@@](C)([C@H]4CC[C@](O)(CC)[C@H](C)O4)O3)O2)[C@H](C)C[C@@H]1C [FLC-00362-1] | 32 nM | 4.8 | 153 nM | 73.8 nM | 2.1 | 11.3 nM | 13.6 | 38.4 nM | 4.0 | 0.5 | 473 nM | 0.3 | 17 nM | 9.0 | 36.8 nM | 4.2 | 1.1 | 12.9 | 11.9 nM | 2.5 | IC50 (A375 (human melanoma); [12]): 281 nM; IC50 [9, 13]: 62.4 nM |
| CC[C@@H](C(=O)[C@@H](C)[C@@H](O)[C@H](C)[C@@H]1O[C@@H]([C@@H](CC)C(=O)O)CC[C@@H]1C)[C@H]1O[C@]2(C=C[C@@H](NC(=O)Nc3ccc(F)cc3)[C@]3(CC[C@@](C)([C@H]4CC[C@](O)(CC)[C@H](C)O4)O3)O2)[C@H](C)C[C@@H]1C [FLC-00363-1] | 13 nM | 4.8 | 62.2 nM | 19.3 nM | 3.2 | 2 nM | 31.1 | 4.06 nM | 15.3 | 1.7 | 27.3 nM | 2.3 | 4.46 nM | 14.0 | 11.7 nM | 5.3 | 0.7 | 44.3 | 1.41 nM | 22.4 | IC50 (A375 (human melanoma); [12]): 37.3 nM; IC50 [9, 13]: 2.78 nM |
| CC[C@@H](C(=O)[C@@H](C)[C@@H](O)[C@H](C)[C@@H]1O[C@@H]([C@@H](CC)C(=O)O)CC[C@@H]1C)[C@H]1O[C@]2(C=C[C@@H](NC(=O)NC3CCCC3)[C@]3(CC[C@@](C)([C@H]4CC[C@](O)(CC)[C@H](C)O4)O3)O2)[C@H](C)C[C@@H]1C [FLC-00351-1] | 22.3 nM | 3.0 | 66.6 nM | 22 nM | 3.0 | 0.45 nM | 148.7 | 10.7 nM | 6.2 | 0.6 | 360 nM | 0.2 | 24.5 nM | 2.7 | 23.7 nM | 2.8 | 1.2 | 125.6 | 0.53 nM | 0.6 | IC50 (A375 (human melanoma); [12]): 104 nM; IC50 [9, 13]: 112 nM |
| CCOC(=O)CNC(=S)N[C@@H]1C=C[C@]2(O[C@H]([C@@H](CC)C(=O)[C@@H](C)[C@@H](O)[C@H](C)[C@@H]3O[C@@H]([C@@H](CC)C(=O)O)CC[C@@H]3C)[C@@H](C)C[C@H]2C)O[C@@]12CC[C@@](C)([C@H]1CC[C@](O)(CC)[C@H](C)O1)O2 [FLC-00352-1] | 32.9 nM | 3.5 | 115 nM | 50.9 nM | 2.3 | 2.14 nM | 53.8 | 45.2 nM | 2.5 | 0.3 | 416 nM | 0.3 | 52.8 nM | 2.2 | 30 nM | 3.8 | 1.8 | 30.4 | 3.77 nM | 0.5 | IC50 (A375 (human melanoma); [12]): 459 nM; IC50 [9, 13]: 234 nM |
